Source: patent US20120115778A1, “Methods of Suppressing Appetite by the Administration of Antagonists of the Serotonin HTR1a or HTR2b Receptors or Inhibitors of TPH2” (The Trustees of Columbia University in the City of New York, priority 2009, published 2012)

Columns and labels:
[1] = Appetite in Htr1aPomc-/- mice treated with LY426965; format: in vivo
Protocol: These two hypotheses were tested through the use of a small molecule that selectively antagonizes signaling through Htr1a receptor. Other Htr1a and 2b receptor antagonists for use in the present invention are discussed below.
Animals were housed under 12 h light/12 h dark conditions with ad libitum access to food and water, and were used after a minimum of 4 days of acclimatization to the housing conditions. Control, Htr1aPomc−/−, Htr2bPomc−/−, Htr1a; 2 bPomc−/−, CrebPomc−/− mice were separated into individual cages one day prior to the experiment. Food intake and energy expenditure was measured every 12 hours for 36 hours essentially as described previously (6, 17).

[2] = Acute dose response of LY426965 on food intake in WT mice; format: in vivo
Protocol: (§1) This decrease in food intake reached 77% of control values when using 20 mg/kg of the compound (FIG. 19 C). […] Thus LY426965 decreases appetite in WT mice by inhibiting serotonin signaling through the Htr1a receptor that is located in the hypothalamus.
(§2) One or 3-month old C57B1/6J inbred female mice were used in these experiments. Two different experimental regimens were utilized to assess the effect of LY426965 on appetite in WT and ob/ob mice.
Animals were separated into individual cages one day prior to the experiment. Compound LY426965 was dissolved in water and fed orally (Gavage) according to the weight of the mouse at doses 1, 5, 10 and 20 mg/kg BW two hours prior to the commencement of the dark cycle. Control animals received the same volume of vehicle. Food intake was measured every 12 hours for 36 hours after giving one dose of the antagonist.

[3] = target: T1, Htr1a receptor (Homo sapiens, UniProt P08908); details: cited from earlier work
T1 sequence (P08908 1-422): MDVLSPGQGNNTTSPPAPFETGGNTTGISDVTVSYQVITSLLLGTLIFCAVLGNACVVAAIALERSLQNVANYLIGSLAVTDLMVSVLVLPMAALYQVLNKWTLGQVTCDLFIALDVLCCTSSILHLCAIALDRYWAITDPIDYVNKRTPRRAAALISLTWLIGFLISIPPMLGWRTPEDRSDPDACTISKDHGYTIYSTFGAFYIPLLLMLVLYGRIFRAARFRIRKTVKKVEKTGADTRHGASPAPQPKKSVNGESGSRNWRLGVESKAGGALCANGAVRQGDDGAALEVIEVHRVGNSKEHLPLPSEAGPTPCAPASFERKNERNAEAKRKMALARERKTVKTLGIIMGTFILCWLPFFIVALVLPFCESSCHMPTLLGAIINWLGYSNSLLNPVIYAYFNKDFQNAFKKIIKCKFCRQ

[4] = Chronic treatment of ob/ob mice with LY426965; format: in vivo; details: 20 mg/kg body weight daily for 4 weeks from 4 weeks of age
Protocol: (§3) To determine whether LY426965 could decrease appetite in leptin-deficient ob/ob mice, we administered 4-week old ob/ob mice with a single dose of LY426965 (0.2 mg/20 g of body weight) and measured food intake 12, 24 and 36 h later. […] Experiments were conducted to determine whether LY426965 could rescue, at least in part, the obesity of ob/ob mice if administered chronically, once mice had already developed an obesity phenotype. 4-week old ob/ob mice were administered daily with 20 mg/kg body weight dose of LY426965 for 4 additional weeks.
In this experiment one-month old WT and ob/ob mice (housed individually in metabolic cages) were divided into different groups and injected with the LY426965 dissolved in water and diluted in saline (final concentration 0.9%) once a day, 2 hours prior to the commencement of the dark cycle, for 4 weeks. Body weight was recorded everyday and dose of the drug and vehicle adjusted accordingly. At the end of the experiment all mice were subjected to measurement of food intake every 12 hours over a period of 36 hours.

[5] = Mass spectrometric analysis of mice hypothalami after administration of the compound; format: in vivo
Protocol: as §1

[6] = Food intake in leptin-deficient ob/ob mice after a single dose of LY426965; format: in vivo; details: 4-week old ob/ob mice, single dose 0.2 mg/20 g of body weight, 12, 24 and 36 h later
Protocol: as §3, §2

compound reaching the hypothalamus [5]: could reach the hypothalamus
Structure (SMILES): COc1ccccc1N1CCN(CC[C@](C)(C(=O)C2CCCCC2)c2ccccc2)CC1 [LY426965]
appetite [1]: not decreased | decrease in food intake ([2]; 20 mg/kg, WT mice): 77 % of control values | appetite (dose response) ([2]; 1 to 20 mg/kg of body weight fed to 12 week-old C57B16/J mice): dose-dependent decrease in appetite | selectivity over other serotonin and non-serotonin receptor subtypes [3]: ≥ 20 fold | Ki ([3]; read-out: affinity for the Htr1a receptor (Ki)): 4.66 nM | obesity phenotype [4]: significantly decreased the obesity phenotype | food intake lower than in vehicle-treated mice [6]: 20-25%
